{"source": "paper PMC10604720", "about": "“Unraveling the Mechanism of Epichaperome Modulation by Zelavespib: Biochemical Insights on Target Occupancy and Extended Residence Time at the Site of Action” (Biomedicines, 2023)", "key": {"[1]": {"experiment": "Biodistribution / PET pharmacokinetics of [124I]-zelavespib in MDA-MB-468 tumor-bearing mice (data of ref 32, refitted to exponential decay)", "assay_type": "in vivo, mouse", "procedure": "Iodine-124 is a ‘non-residualizing’ isotope (i.e., free iodine-124 washes out from cells), and therefore, data derived from positron emission tomography imaging of MDA-MB-468-bearing mice that were administered a tracer amount of [^124I]-PU-AD can be used to determine real-time zelavespib concentrations delivered to tumors. Because positron emission tomography provides information on radioactivity and not molar concentrations, radioactivity data from Pillarsetty et al. were transformed into tumor concentrations to calculate the time-dependent zelavespib concentrations in tumors for an administered dose of 50 mg/kg. The drug concentration (in μM) in the tumor water space, [Drugtumor], at the time t post-administration is therefore: [Drugtumor]t=Drugdose·[Atumor]t/100%·1/W·1×10^6/MW µM where Drugdose is the administered drug dose (in mg), [Atumor]t is the activity concentration (in % injected dose per milliliter, %ID/mL) of the surrogate radiotracer, W is the water space of the tissue (in mL/g), MW is the molecular weight of the drug (i.e., zelavespib), and the factor 1 × 10^6 converts the concentration to μM. For the drug zelavespib and the surrogate radiotracer […] co-injected in a ratio of ~1 to 10,000, the drug itself is essentially the only significant form of the drug–surrogate combination in the tumor. Thus, for a co-administered dose of zelavespib (zelavespibdose in mg) and a tracer amount of [^124I]-PU-AD, the drug concentration in the tumor water space (using an average water space, W = 0.8 mL/g, and the molecular weight MW = 512) is: [Zelavespibtumor]t=Zelavespibdose · [Atumor]t/100%·2.44×10^3 µM\nTo study the zelavespib–epichaperome interaction in vivo, we selected, for simplicity, an epichaperome-positive tumor model (e.g., subcutaneously xenografted MDA-MB-468 tumors in mice). Using whole-body PET imaging after the injection of ^124I-labeled zelavespib, Pillarsetty et al. reported drug presence in MDA-MB-468 tumors up to 120 h post-single dose administration (~T1/2 = 60 h). Conversely, zelavespib was no longer observed in non-disease, non-metabolizing tissues after ~8 h, clearing rapidly from plasma, paralleled by a similar rapid clearance from normal tissues (i.e., chaperone-positive but epichaperome-negative). In these tumors, a clear relationship between tumor retention, pharmacodynamic effects, and anti-tumor activity was observed, supporting the notion that zelavespib was in residence with its target over the time it resided in these tumors.\nThese values are very much in agreement with those reported for zelavespib in human patients. […] Contrasting plasma and normal tissues and organs, the distribution of zelavespib in tumors was best fitted using a bi-exponential model. […] The first phase thus reflects the clearance of systemic agent, while the second is attributable to specific tumor retention.\nFigure 1 Biodistribution of zelavespib in MDA-MB-468 tumor-bearing mice. (a) Biodistribution of [^124I]-Zelavespib in MDA-MB-468 tumors, organs, tissues, and plasma as per ref. [32]. Data are presented as means ± s.d., five mice per time point. Curves for blood, lung, heart, muscle, bone, and brain were fitted using a one-phase decay equation, and kinetics of zelavespib clearance were determined. Tumor curve was fitted to a two-phase exponential decay. k, kfast, and kslow are the rate constants. Half-life (T1/2) is computed as ln(2)/k. […] (b) Illustrative schematic showing the distinct binding kinetics of zelavespib to epichaperomes (slow off-rate) and to chaperone assemblies (fast off-rate). The tumor pharmacokinetics profile recorded in the Phase 2 interval may represent a direct reflection of the in vivo kinetics of target–drug unbinding. koff, kinetic rate constant for dissociation of an epichaperome-zelavespib assembly. Rt, retention time. […]"}, "[2]": {"design": "method as in PMID 31668946", "conditions": "whole-body PET imaging, mice; cited from earlier work"}, "[3]": {"conditions": "MDA-MB-468 tumor-bearing mice, one-phase exponential decay fit of data of ref 32"}, "[4]": {"conditions": "MDA-MB-468 tumor, bi-exponential fit, Phase 1: 0 to 8 h, data of ref 32"}, "[5]": {"conditions": "MDA-MB-468 tumor, bi-exponential fit, slow terminal clearance phase, data of ref 32"}, "[6]": {"conditions": "one-phase decay fit of data of ref 32"}}, "data": [{"smiles": "CC(C)NCCCn1c(Sc2cc3c(cc2[124I])OCO3)nc2c(N)ncnc21", "note": "[[^124I]-zelavespib]", "values": [{"measurement": "half-life (T1/2), bone", "setting": "[1]; [3]", "value": 2.844, "unit": "h"}, {"measurement": "half-life (T1/2), brain", "setting": "[1]; [3]", "value": 2.655, "unit": "h"}, {"measurement": "half-life (T1/2), heart", "setting": "[1]; [3]", "value": 3.102, "unit": "h"}, {"measurement": "half-life (T1/2), lung", "setting": "[1]; [3]", "value": 3.367, "unit": "h"}, {"measurement": "half-life (T1/2), muscle", "setting": "[1]; [3]", "value": 5.034, "unit": "h"}, {"measurement": "half-life (T1/2), plasma/blood", "setting": "[1]; [3]", "value": 4.380, "unit": "h"}, {"measurement": "tumor Phase 1 T1/2", "setting": "[1]; [4]", "value": 2.876, "unit": "h"}, {"measurement": "tumor Phase 1 rate constant k (kfast)", "setting": "[1]; [4]", "value": 0.2410, "unit": "h⁻¹"}, {"measurement": "tumor Phase 2 T1/2", "setting": "[1]; [5]", "value": 46.80, "unit": "h"}, {"measurement": "tumor Phase 2 rate constant k (kslow)", "setting": "[1]; [5]", "value": 0.0148, "unit": "h⁻¹"}, {"measurement": "clearance rate constant k, blood", "setting": "[1]; [6]", "value": 0.1583, "unit": "h⁻¹"}, {"measurement": "clearance rate constant k, bone", "setting": "[1]; [6]", "value": 0.2437, "unit": "h⁻¹"}, {"measurement": "clearance rate constant k, brain", "setting": "[1]; [6]", "value": 0.2611, "unit": "h⁻¹"}, {"measurement": "clearance rate constant k, heart", "setting": "[1]; [6]", "value": 0.2234, "unit": "h⁻¹"}, {"measurement": "clearance rate constant k, lung", "setting": "[1]; [6]", "value": 0.2059, "unit": "h⁻¹"}, {"measurement": "clearance rate constant k, muscle", "setting": "[1]; [6]", "value": 0.1377, "unit": "h⁻¹"}, {"measurement": "T1/2 in MDA-MB-468 tumors", "setting": "[2]", "value": "~60", "unit": "h"}, {"measurement": "drug presence in MDA-MB-468 tumors, time post-single dose administration", "setting": "[2]", "value": "up to 120 h"}]}]}
